# Measured values reported in patent publication US20030143586A1, “Genetic hypermutability of plants for gene discovery and diagnosis” (priority 2001, published 2003).
# Columns and labels:
# [1] = test system: Conyza canadensis field populations; conditions: cited from earlier work
# [2] = test system: horseweed (Conyza canadensis); experiment: Glyphosate applied to horseweed plants to confirm sensitivity to the herbicide; format: in vivo
# Procedure: Isolation and modification of the genomic DNA: Total horseweed (Conyza Canadensis) genomic DNA was isolated from 100 mg of leaves using Plant DNAZol as described by the manufacturer (Invitrogen). The typical yield was 10-20 μg DNA per preparation. Two different biotypes of horseweed were used as source of the DNA and were designated HR and HS.
# Analysis of the DNA Marker: Horseweeds were either germinated from seeds or seedlings were transferred from the field into the greenhouse. DNAs from the genomes of HR and HS horseweeds were isolated. At the same time, glyphosate was applied at 2 lb active ingredient/acre rate to confirm the plants' sensitivity to the herbicide.
structure (smiles),measurement,setting,value
"O=C(O)CNCP(=O)(O)O [Glyphosate, glyphosate]",field populations naturally resistant to glyphosate,[1],approximately 15%
same,response to glyphosate treatment,"[2]; horseweed biotype designated HR (DNA source, Example 4)",tolerance
same,response to glyphosate treatment,"[2]; horseweed biotype designated HS (DNA source, Example 4)",sensitive
